Like-named read-outs stand apart in the source and are kept apart here. Bridge positions count the residues as written; N and C are the ends. Peptide text beside a SMILES is read from it.
What was measured:
[1] = Relative cell viability in HCHT screening (propidium iodide negative nuclei count); type: cell-based; settings: human, HeLa, read-out: GI50, concentration causing 50% cell growth inhibition
Protocol: (§1) With COCs 1 and 2 as cell-penetrating reporters, a fully automated, fluorescent microscopy image-based high-content high-throughput (HCHT)[19] inhibitor screening assay was developed. HeLa cells in multiwell plates are incubated with a reporter at constant and inhibitors at varying concentrations and incubation times. Hindered reporter uptake then causes decrease of fluorescence inside of cells (Fig. 3a). Automated data analysis[19] was established to extract average fluorescence intensity per cell and, at the same time, cell viability from propidium iodide negative nuclei count (Fig. 3 and S3–S6 ^†). Standard assay conditions consisted of pre-incubation of HeLa cells with inhibitors for different periods of time, followed by the removal of inhibitors and the addition of reporters, thus excluding possible interactions between the two in the extracellular environment. In alternative co-incubation conditions, inhibitors were not removed before the addition of reporters to allow for eventual interactions between the two.
(§2) To be able to extract the fluorescent integrated intensity information (sum of the intensities of all the pixels included in the mask) from the green channel for live cell only, the image analysis pipeline contains several steps of cell filtering and selection:
(§3) 1) Firstly, PI is used to stain any remaining nuclei of dead cell. In the analysis pipeline, all the “dead” nuclei are detected based on their fluorescent intensity in the PI channel (Figure […]
(§4) Fig. S4 (A) PI positive nuclei mask (fluorescent intensity threshold of 1000). (B) Overlap image of dead nuclei mask and original all cell body mask. (C) Resulting cell mask after removing any cell marked by a dead nucleus, new mask is called “Live Cell”. Scale bar: 50 μm.
(§5) 2) Elimination of non-full cells from the border of the image is performed, to avoid inaccurate fluorescent integrated intensity quantification (fluorescent integrated intensity = sum of intensity of all the pixel of the object) (Figure S5).
(§6) (1 picture or pasted object on this page, not shown here)
(§7) 4.3. HCHT Inhibitor Screening with ETP as Reporter […]
(§8) Relative cell viability (RV) for each condition in the presence of inhibitors were calculated using the count value of living cells by dividing the count value of living cells with addition of reporter 1, Hoechst 33342 and PI, for each set of experiments. Duplicates were performed for each condition. The resulting dependence of the relative cell viability (RVrel) to the concentration of inhibitors (cinhibitor) was plotted and fitted with Equation (S2) to retrieve the concentration causing 50% cell growth inhibition (GI50) value and the Hill coefficient (n).
(§9) RVrel = 1 / (1 + (GI50 / cinhibitor)n) (S2)
(§10) Note: Reporter 1 were not toxic for 1 h at 10 μM.S2 Also in this study, the count value of living cells with addition of reporter 1, Hoechst 33342 and PI is always similar to that of living cells with only addition of Hoechst 33342 and PI.
as §8, with “with” for “in the presence of”, “2,” for “1,”
(§11) Note: Reporter 2 were not toxic for 24 h at 10 μM.S3 Also in this study, the count value of living cells with addition of reporter 2, Hoechst 33342 and PI is always similar to that of living cells with only addition of Hoechst 33342 and PI.
(§12) 4.4.1. Screening with Disulfides as Inhibitors
(§13) 4.4.1.1. Screening with ETP as Inhibitors
(§14) Fig. S35 Automatically analyzed HCHT data showing fluorescence intensity (filled symbols) and relative viability (empty symbols) of HeLa cells after pre-incubation with 3 for 1 h (blue […]

[2] = tested on: A549 human lung alveolar basal epithelium cells overexpressing ACE2 and TMPRSS2; settings: Fig. S44
HeLa Kyoto cells = experiment: Relative cell viability in HCHT screening (propidium iodide negative nuclei count); type: cell-based; settings: HeLa, removal, tinc 0.5 h with 1 (10 µM), read-out: GI50, concentration causing 50% cell growth inhibition
Protocol: as §1, §2, §3, §4, §5, §6, §7, §8, §9, §10
as §8, with “with” for “in the presence of”, “2,” for “1,”
as §11, §12, §13, §14

[3] = trans to cis isomer 22; Fig. S46
[4] = tpre 0.5 h with inhibitor, removal, tinc 0.5 h with 1 (10 µM)
[5] = tpre 1 h with inhibitor, removal, tinc 0.5 h with 1 (10 µM)
[6] = tpre 2 h with inhibitor, removal, tinc 0.5 h with 1 (10 µM)
[7] = tpre 4 h with inhibitor, removal, tinc 0.5 h with 2 (10 µM)
[8] = tpre 5.5 h with FBS, then tco 0.5 h co-incubation of inhibitor and 1 (10 µM)
[9] = tpre 23.5 h with FBS, then tco 0.5 h co-incubation of inhibitor and 1 (10 µM)
[10] = tpre 23.5 h with FBS, then tco 0.5 h co-incubation of inhibitor and 2 (10 µM)
[11] = HeLa Kyoto cells, tpre 0.5 h, then tco 0.5 h co-incubation of inhibitor and 2 (10 µM)
[12] = HeLa Kyoto cells, tpre 0.5 h with inhibitor, removal, tinc 0.5 h with 1 (10 µM)
[13] = HeLa Kyoto cells, tpre 1 h with inhibitor, removal, tinc 0.5 h with 1 (10 µM)
[14] = HeLa Kyoto cells, tpre 1 h with inhibitor, removal, tinc 0.5 h with 2 (10 µM)
[15] = HeLa Kyoto cells, tpre 1.5 h, then tco 0.5 h co-incubation of inhibitor and 2 (10 µM)
[16] = HeLa Kyoto cells, tpre 2 h with inhibitor, removal, tinc 0.5 h with 1 (10 µM)
[17] = HeLa Kyoto cells, tpre 2 h with inhibitor, removal, tinc 0.5 h with 2 (10 µM)
[18] = HeLa Kyoto cells, tpre 4 h with inhibitor, removal, tinc 0.5 h with 2 (10 µM)
[19] = tpre 0.5 h, then tco 0.5 h co-incubation of inhibitor and 1 (10 µM)
[20] = tpre 0.5 h, then tco 0.5 h co-incubation of inhibitor and 2 (10 µM)
[21] = tpre 1 h with inhibitor, removal, tinc 0.5 h with 2 (10 µM)
[22] = tpre 4 h with inhibitor, removal, tinc 0.5 h with 1 (10 µM)
[23] = tpre 6 h with FBS, removal, tinc 0.5 h with 2 (10 µM)

Row | SMILES | GI50 [1, 4] [µM] | GI50 [1, 5] [µM] | GI50 [1, 6] [µM] | GI50 [1, 7] [µM] | GI50 [1, 8] [µM] | GI50 [1, 9] [µM] | GI50 [1, 19] [µM] | GI50 [1, 20] [µM] | GI50 [1, 22] [µM] | GI50 [1, 23] [µM] | other results
1 | O=C(O)CC[C@H](NC(=O)CCCCC1CCSS1(=O)=O)C(=O)O (stereo partly shown) [compound 15] | > 500 | > 500 | > 500 | > 500 | > 1000 | 944 ± 60 | – | – | – | – | GI50 [1, 10]: > 500 µM
2 | N[C@H]1CSSC[C@@H](C(=O)N[C@@H](CCC(=O)O)C(=O)O)NC(=O)CNC1=O [compound 19] (H-CGCE-OH; disulfide 1-3) | – | – | – | – | – | – | – | – | – | – | GI50 at 1 h [1, 11]: > 500 µM; GI50 at 0.5 h [1, 12]: > 2000 µM; GI50 at 1 h [1, 13]: > 2000 µM; GI50 at 1 h [1, 14]: > 1000 µM; GI50 at 2 h [1, 15]: > 500 µM; GI50 at 2 h [1, 16]: > 2000 µM; GI50 at 2 h [1, 17]: > 1000 µM; GI50 at 4 h [1, 18]: > 1000 µM
3 | CCN1C(=O)C2SSSSC1C(=O)N2CC(=O)O (stereo not shown) [compound 3] | 34 ± 2.9 | 35 ± 4.4 | 46.1 ± 4.8 | – | > 50 | > 50 | 13.3 ± 0.8 | ~20 | > 50 | > 100 | Concentration at which toxicity was detected [2]: 50 µM; GI50 [1, 21]: > 20 µM
4 | O=S1(=O)C[C@H](O)[C@H](O)CS1 [compound 16] | – | 1300 ± 490 | – | > 500 | > 1000 | 490 ± 60 | – | – | – | – | Concentration at which toxicity was detected [2]: 500 µM
5 | CCN1C(=O)C2SSC1C(=O)N2CC(=O)O (stereo not shown) [compound 4] | > 100 | 12.5 ± 0.7 | ~9.2 | ~4 | > 20 | > 20 | ~8.4 | ~20 | 6.4 ± 0.3 | – | GI50 [1, 21]: > 20 µM
6 | O=C(O)CC[C@H](NC(=O)CN1C(=O)C2SSC1C(=O)N2CCOc1ccccc1)C(=O)O (stereo partly shown) [compound 9] | > 100 | > 100 | > 100 | > 100 | – | – | – | – | – | > 200 | –
7 | N[C@H]1CSSC[C@@H](C(=O)NCC(=O)O)NC(=O)[C@H](CCC(=O)O)NC1=O [compound 18] (H-CECG-OH; disulfide 1-3) | – | – | – | – | – | – | – | – | – | – | GI50 at 1 h ([1]; HeLa Kyoto cells, tpre 0.5 h, then tco 0.5 h co-incubation of inhibitor and 1 (10 µM)): > 500 µM; GI50 at 1 h [1, 11]: > 500 µM; GI50 at 0.5 h [1, 12]: > 2000 µM; GI50 at 1 h [1, 13]: > 2000 µM; GI50 at 1 h [1, 14]: > 1000 µM; GI50 at 2 h [1, 15]: > 500 µM; GI50 at 2 h [1, 16]: > 2000 µM; GI50 at 2 h [1, 17]: > 1000 µM; GI50 at 4 h [1, 18]: > 1000 µM; GI50 at 6 h ([1]; HeLa Kyoto cells, tpre 5.5 h with FBS, then tco 0.5 h co-incubation of inhibitor and 1 (10 µM)): > 1000 µM; GI50 at 24 h ([1]; HeLa Kyoto cells, tpre 23.5 h with FBS, then tco 0.5 h co-incubation of inhibitor and 1 (10 µM)): > 1000 µM
8 | O=C(O)CNC(=O)c1ccc2c(c1)SSSSS2 [compound 6] | > 100 | ~98 | ~45 | ~17 | > 20 | > 20 | > 20 | > 20 | ~44 | ~105 | –
9 | [O-][S+]1CC(O)C(O)CS1 (stereo not shown) [compound 17] | – | – | – | – | > 1000 | 450 ± 50 | > 500 | – | – | – | GI50 (HeLa Kyoto cells; tpre 1 h with inhibitor): 710 ± 50 µM; GI50 (HeLa Kyoto cells; tpre 2 h with inhibitor): 730 ± 10 µM; GI50 (HeLa Kyoto cells; tpre 4 h with inhibitor): ~500 µM; Isomerization [3]: isomerized with time
10 | O=C(CN1C(=O)C2SSC1C(=O)N2CCOc1ccccc1)NCC(=O)OC[C@H]1OC(O)[C@H](O)[C@@H](O)[C@@H]1O (stereo partly shown) [compound 7] | > 100 | > 100 | > 100 | > 100 | > 100 | > 100 | – | – | – | > 200 | GI50 [1, 10]: > 100 µM

Source: PMC8179002, “Inhibitors of thiol-mediated uptake” (Chemical Science, 2020)
